According to patent publication EP4516309A1, “CRHR1 AGONISTS FOR USE IN THE TREATMENT OF SOCIAL ANXIETY DISORDERS” (Consejo Superior de Investigaciones Cientificas, priority 2023, dated 2025):

Target: T1, excitatory DREADD (Homo sapiens, UniProt P20309, A239G/Y149C)
T1 construct: host or cells: ILA CRH+ neurons of CRH-Cre mice, Cre-dependent AAV2/5 transduction in vivo
Test: c-fos / mCherry overlap in ILA after familiar animal presentation, excitatory DREADD
Format: in vivo, CRH-Cre mice
Conditions: CNO i.p. 30 min before familiar animal presentation; vs. saline
Experimental: Mice were anesthetized using isoflurane then perfused in the heart with 10 mL saline and their brains were quickly extracted and incubated in 4% PFA overnight. After 1 h washing in PBS, 60 µm slices were prepared using a Leica VT1000S vibratome (Leica Biosystems). Unless indicated otherwise, slices were permeabilized for 2h in PBS with 0.5% Triton-X100 (T9284, Sigma-Aldrich) in PBS before being incubated overnight at 4°C with primary antibodies diluted in PBS with 0.5% Triton-X in PBS. The slices were washed in PBS for 1 h then incubated overnight at 4°C with secondary antibodies from Thermo-Fisher Scientific at a concentration of 1:500 diluted in PBS with 0.1% Triton-X. Hoechst counterstain was applied (Hoechst 33342 at 1:1000 for 30 min in PBS at RT) prior to mounting the slice using fluoromount (Sigma-Aldrich). Images were acquired using inverted confocal microscopes (Ism 900, Zeiss and SPII, Leica) or an epifluorescent microscope (Thunder, Leica). For post-hoc immunocytochemistry after patch-clamp recordings, slices were fixed for 1 h in PBS with 4% PFA and streptavidin was applied during secondary incubation. • For mRuby and GFP labelling, primary incubation was performed overnight at 4°C with rabbit anti-RFP (1:500, Rockland Antibody, #600-401-379) and chicken anti-GFP (1:1000, Aves, #GFP-1020) antibodies. […]

T1 sequence (P20309 whole entry Y149C/A239G): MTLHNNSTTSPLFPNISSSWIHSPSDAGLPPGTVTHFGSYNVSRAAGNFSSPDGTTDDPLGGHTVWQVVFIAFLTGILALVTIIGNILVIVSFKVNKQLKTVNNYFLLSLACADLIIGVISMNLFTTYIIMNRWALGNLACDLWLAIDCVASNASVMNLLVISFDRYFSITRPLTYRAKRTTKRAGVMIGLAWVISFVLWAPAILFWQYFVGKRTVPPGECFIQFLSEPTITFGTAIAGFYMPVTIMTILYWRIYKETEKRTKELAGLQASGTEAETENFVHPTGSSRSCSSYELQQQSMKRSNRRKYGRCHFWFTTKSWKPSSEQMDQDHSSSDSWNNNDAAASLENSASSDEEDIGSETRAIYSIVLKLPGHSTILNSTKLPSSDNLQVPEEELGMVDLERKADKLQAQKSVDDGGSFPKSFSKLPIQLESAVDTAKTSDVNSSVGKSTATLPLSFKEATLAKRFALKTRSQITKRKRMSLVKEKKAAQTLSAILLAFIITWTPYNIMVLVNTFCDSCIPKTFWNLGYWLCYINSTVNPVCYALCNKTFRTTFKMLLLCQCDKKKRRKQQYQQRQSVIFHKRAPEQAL

C[N+]1([O-])CCN(C2=Nc3cc(Cl)ccc3Nc3ccccc32)CC1 [CNO, clozapine N-oxide]
c-fos/mCherry+ overlap in ILA: increased c-fos/mCherry+ overlap
